pIC50: −log10 of the molar value. Values joined by “and” are separate entries in the source; they are usually repeats but may differ in a detail not shown here. Equal entries are not always repeated. Where two headings read alike, the source gives them in different places.
Key:
[1] = system: NCI-H358 cells (K-Ras G12C); assay: CellTiter-Glo cell viability, NCI-H358; type: cell-based, human; details: K-Ras G12C, 5-day treatment, read-out: H358 Cell Viability IC50
In short: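 Compounds dispensed directly onto seeded cells; on day 5 plates equilibrated ~30 min to room temperature and luminescence read. Signal normalized to DMSO average (%) and fitted by four-parameter logistic.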

[2] = biological target: KRAS G12C (Homo sapiens (Human), UniProt P01116+P62937, G12C); assay: Ras-Raf disruption/FRET/MOA assay (BRAF RBD, Cyclophilin A); type: biochemical; details: read-out: KRAS G12C FRET IC50
In short: (§1)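 Measured: compound-facilitated Cyclophilin A:Ras complex blocking RAF RBD binding. Conditions: 12.5 nM Ras-GMPPNP, 50 nM BRAF RBD, 25 μM CypA, 3 h plus 1.5 h detection. Output: IC50 from TR-FRET ratio.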

[3] = biological target: KRAS G12D (Homo sapiens (Human), UniProt P01116+P62937, G12D); assay: as above; type: biochemical; details: read-out: KRAS G12D FRET IC50
In short: as §1

[4] = biological target: KRAS G12S (Homo sapiens (Human), UniProt P01116+P62937, G12S); assay: as above; type: biochemical; details: read-out: KRAS G12S FRET IC50
In short: as §1

[5] = biological target: KRAS G12V (Homo sapiens (Human), UniProt P01116+P62937, G12V); assay: as above; type: biochemical; details: read-out: KRAS G12V FRET IC50
In short: as §1

[6] = biological target: KRAS G13C (Homo sapiens (Human), UniProt P01116+P62937, G13C); assay: as above; type: biochemical; details: read-out: KRAS G13C FRET IC50
In short: as §1

[7] = biological target: KRAS G13D (Homo sapiens (Human), UniProt P01116+P62937, G13D); assay: as above; type: biochemical; details: read-out: KRAS G13D FRET data IC50
In short: as §1

[8] = biological target: KRAS WT (Homo sapiens (Human), UniProt P01116+P62937); assay: as above; type: biochemical; details: read-out: KRAS WT FRET data IC50
In short: as §1

[9] = biological target: NRAS G12C (Homo sapiens (Human), UniProt P01111+P62937, G12C); assay: as above; type: biochemical; details: read-out: NRAS G12C FRET data IC50
In short: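 First, 25 μM Cyclophilin A, 12.5 nM His6-Ras-GMPPNP and 50 nM GST-BRAF RBD are mixed with diluted compound at pH 7.3. Next, 3 h at 25° C. Then 10 nM anti-His Eu-W1024 plus 50 nM anti-GST allophycocyanin for 1.5 h before TR-FRET reading.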

Sequence of KRAS G13C (P01116 other isoform, or with tags, fused parts or gaps G13C): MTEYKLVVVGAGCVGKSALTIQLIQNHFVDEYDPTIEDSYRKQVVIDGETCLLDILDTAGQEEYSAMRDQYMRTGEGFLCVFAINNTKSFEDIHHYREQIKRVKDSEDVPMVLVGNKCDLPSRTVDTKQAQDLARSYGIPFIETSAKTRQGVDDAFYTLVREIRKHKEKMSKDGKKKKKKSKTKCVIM
Sequence of KRAS G13C (P62937 whole entry): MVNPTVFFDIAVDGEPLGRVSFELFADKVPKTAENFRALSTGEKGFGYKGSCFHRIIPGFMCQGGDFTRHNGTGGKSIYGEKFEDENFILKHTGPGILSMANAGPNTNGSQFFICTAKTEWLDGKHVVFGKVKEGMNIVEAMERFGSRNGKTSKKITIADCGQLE
Sequence of NRAS G12C (P01111 whole entry G12C): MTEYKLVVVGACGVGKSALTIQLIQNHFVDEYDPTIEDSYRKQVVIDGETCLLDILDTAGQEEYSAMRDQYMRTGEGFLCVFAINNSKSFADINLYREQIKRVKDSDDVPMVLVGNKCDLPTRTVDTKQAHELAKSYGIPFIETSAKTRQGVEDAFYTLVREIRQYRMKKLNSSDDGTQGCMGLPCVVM
Sequence of NRAS G12C (P62937 whole entry): as the sequence (P62937 whole entry) above
Sequence of KRAS G12C (P01116-2 other isoform, or with tags, fused parts or gaps G12C): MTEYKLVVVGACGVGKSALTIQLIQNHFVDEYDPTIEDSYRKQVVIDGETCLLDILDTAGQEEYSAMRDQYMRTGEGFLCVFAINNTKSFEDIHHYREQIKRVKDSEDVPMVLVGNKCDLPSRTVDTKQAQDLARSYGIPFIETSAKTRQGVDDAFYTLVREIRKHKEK
Sequence of KRAS G12C (P62937 whole entry): as the sequence (P62937 whole entry) above
Sequence of KRAS WT (P01116 other isoform, or with tags, fused parts or gaps): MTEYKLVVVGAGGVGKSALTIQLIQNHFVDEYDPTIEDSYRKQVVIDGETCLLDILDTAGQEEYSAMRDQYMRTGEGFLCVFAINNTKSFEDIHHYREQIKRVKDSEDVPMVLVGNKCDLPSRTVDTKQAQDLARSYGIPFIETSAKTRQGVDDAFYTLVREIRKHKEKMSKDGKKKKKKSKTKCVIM
Sequence of KRAS WT (P62937 whole entry): as the sequence (P62937 whole entry) above
Sequence of KRAS G13D (P01116 other isoform, or with tags, fused parts or gaps G13D): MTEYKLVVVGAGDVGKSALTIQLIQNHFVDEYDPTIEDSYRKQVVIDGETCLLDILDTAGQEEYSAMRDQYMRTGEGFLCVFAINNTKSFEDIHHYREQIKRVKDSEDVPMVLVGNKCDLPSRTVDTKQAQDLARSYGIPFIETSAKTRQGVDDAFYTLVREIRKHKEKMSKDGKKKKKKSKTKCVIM
Sequence of KRAS G13D (P62937 whole entry): as the sequence (P62937 whole entry) above
Sequence of KRAS G12S (P01116 other isoform, or with tags, fused parts or gaps G12S): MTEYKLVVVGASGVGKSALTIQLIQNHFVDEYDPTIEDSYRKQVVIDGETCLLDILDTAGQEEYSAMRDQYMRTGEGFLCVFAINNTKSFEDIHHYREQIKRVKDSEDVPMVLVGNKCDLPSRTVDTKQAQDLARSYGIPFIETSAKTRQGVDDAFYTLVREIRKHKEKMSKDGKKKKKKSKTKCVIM
Sequence of KRAS G12S (P62937 whole entry): as the sequence (P62937 whole entry) above
Sequence of KRAS G12V (P01116 other isoform, or with tags, fused parts or gaps G12V): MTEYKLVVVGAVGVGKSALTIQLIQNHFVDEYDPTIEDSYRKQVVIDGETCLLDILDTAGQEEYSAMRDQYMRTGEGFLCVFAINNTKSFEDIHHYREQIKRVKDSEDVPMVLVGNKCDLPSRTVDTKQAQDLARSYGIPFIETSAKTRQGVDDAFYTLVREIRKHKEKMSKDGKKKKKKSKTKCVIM
Sequence of KRAS G12V (P62937 whole entry): as the sequence (P62937 whole entry) above
Sequence of KRAS G12D (P01116 other isoform, or with tags, fused parts or gaps G12D): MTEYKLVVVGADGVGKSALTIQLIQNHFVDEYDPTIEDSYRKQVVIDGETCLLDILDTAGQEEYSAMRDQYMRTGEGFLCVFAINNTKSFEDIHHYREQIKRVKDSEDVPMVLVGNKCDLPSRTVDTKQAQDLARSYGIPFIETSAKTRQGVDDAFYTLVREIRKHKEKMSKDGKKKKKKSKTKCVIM
Sequence of KRAS G12D (P62937 whole entry): as the sequence (P62937 whole entry) above

Row | pIC50 ([1]; Homo sapiens, NCI-H358, 120 h) | pIC50 [2] | pIC50 [3] | pIC50 [4] | pIC50 [5] | pIC50 [6] | pIC50 [7] | pIC50 [8] | pIC50 [9] | SMILES | pIC50 [1]
1 | 6.00 to 7.00 | 7.00 to 8.00 | 6.00 to 7.00 | 7.00 to 8.00 | 7.00 to 8.00 | 6.00 to 7.00 | 6.00 to 7.00 | 6.00 to 7.00 | 7.00 to 8.00 | CCn1c(-c2cccnc2[C@H](C)OC)c2c3cc(ccc31)-c1cc(O)cc(c1)C[C@H](NC(=O)[C@H](C(C)C)N(C)C(=O)[C@H]1CCN(C(C)=O)C1)C(=O)N1CCC[C@H](N1)C(=O)OCC(C)(C)C2 [Compound A5] | 
2 | 5.00 to 6.00 | 6.00 to 7.00 | 5.00 to 6.00 | 5.00 to 6.00 | 5.00 to 6.00 | 5.00 to 6.00 | 5.00 to 6.00 | 5.00 to 6.00 | 6.00 to 7.00 | CCn1c(-c2cccnc2[C@H](C)OC)c2c3cc(ccc31)-c1csc(n1)C[C@H](NC(=O)[C@H](C(C)C)N(C)C(=O)[C@H]1CCN(C(=O)CN(C)C)C1)C(=O)N1CCC[C@H](N1)C(=O)OCC(C)(C)C2 [Compound A97] | 
3 |  | 5.00 to 6.00 | 5.00 to 6.00 | 6.00 to 7.00 | < 5.00 | 6.00 to 7.00 | 6.00 to 7.00 | 5.00 to 6.00 | 5.00 to 6.00 | CCn1c(-c2cccnc2[C@H](C)OC)c2c3cc(ccc31)-c1cccc(c1)C[C@H](NC(=O)[C@H](C(C)C)N(C)C(=O)[C@H]1CCNC1)C(=O)N1CCC[C@H](N1)C(=O)OCC(C)(C)C2 [Compound A119] | 
4 |  | 5.00 to 6.00 | < 5.00 | 5.00 to 6.00 | 5.00 to 6.00 | 6.00 to 7.00 | 5.00 to 6.00 | 5.00 to 6.00 | 5.00 to 6.00 | CCn1c(-c2cccnc2[C@H](C)OC)c2c3cc(ccc31)-c1cc(O)cc(c1)C[C@H](NC(=O)C(=C(C)C)N(C)C(C)=O)C(=O)N1CCC[C@H](N1)C(=O)OCC(C)(C)C2 [Compound A142] | 
5 |  | 5.00 to 6.00 | 5.00 to 6.00 | 5.00 to 6.00 | < 5.00 | 6.00 to 7.00 | 5.00 to 6.00 | 5.00 to 6.00 | 5.00 to 6.00 | CCn1c(-c2cccnc2[C@H](C)OC)c2c3cc(ccc31)-c1cc(O)cc(c1)C[C@H](NC(=O)[C@H](C(C)C)N(C)C(=O)[C@H]1CCN(C3CC3)C1)C(=O)N1CCC[C@H](N1)C(=O)OCC(C)(C)C2 [Compound A175] | 
6 | 6.00 to 7.00 | 5.00 to 6.00 | < 5.00 | 5.00 to 6.00 | 5.00 to 6.00 | 5.00 to 6.00 |  | 5.00 to 6.00 | 5.00 to 6.00 | CCn1c(-c2cccnc2[C@H](C)OC)c2c3cc(ccc31)-c1csc(n1)C[C@H](NC(=O)[C@H](C(C)C)N(C)C(=O)C1COC1)C(=O)N1CCC[C@H](N1)C(=O)OCC(C)(C)C2 [Compound A245] | 
7 |  | 5.00 to 6.00 | < 5.00 | 5.00 to 6.00 | 5.00 to 6.00 | 5.00 to 6.00 | 5.00 to 6.00 | 5.00 to 6.00 | 5.00 to 6.00 | CCn1c(-c2cccnc2[C@H](C)OC)c2c3cc(ccc31)-c1cccc(c1)C[C@H](NC(=O)[C@H](C(C)C)N(C)C(=O)C1COC1)C(=O)N1CCC[C@H](N1)C(=O)OCC(C)(C)C2 [Compound A246] | 
8 |  | 7.00 to 8.00 | 6.00 to 7.00 | 7.00 to 8.00 | 6.00 to 7.00 and 7.00 to 8.00 | 7.00 to 8.00 | 6.00 to 7.00 and 7.00 to 8.00 | 7.00 to 8.00 | 7.00 to 8.00 | CCn1c(-c2cccnc2[C@H](C)OC)c2c3cc(ccc31)-c1cc(O)cc(c1)C[C@H](NC(=O)[C@H](C(C)C)N(C)C(=O)C1CC(=O)N(C3CC3)C1)C(=O)N1CCC[C@H](N1)C(=O)OCC(C)(C)C2 (stereo partly drawn) [Compound A252] | 
9 |  | 7.00 to 8.00 | 6.00 to 7.00 | 6.00 to 7.00 | 6.00 to 7.00 | 7.00 to 8.00 | 7.00 to 8.00 | 6.00 to 7.00 | 6.00 to 7.00 | CCn1c(-c2cnccc2COC)c2c3cc(ccc31)-c1cc(O)cc(c1)C[C@H](NC(=O)[C@H](C(C)C)N(C)C(=O)N1CCNCC1)C(=O)N1CCC[C@H](N1)C(=O)OCC(C)(C)C2 [Compound A255] | 
10 | 6.00 to 7.00 | 6.00 to 7.00 | 5.00 to 6.00 | 5.00 to 6.00 | 5.00 to 6.00 | 5.00 to 6.00 | 5.00 to 6.00 | 6.00 to 7.00 | 6.00 to 7.00 | CCn1c(-c2cccnc2[C@H](C)OC)c2c3cc(ccc31)-c1csc(n1)C[C@H](NC(=O)[C@H](C(C)C)N(C)C(=O)N1C[C@@H](C)N(C)C[C@@H]1C)C(=O)N1CCC[C@H](N1)C(=O)OCC(C)(C)C2 [Compound A292] | 
11 | 6.00 to 7.00 | 5.00 to 6.00 | < 5.00 | 5.00 to 6.00 | 5.00 to 6.00 | 5.00 to 6.00 | 5.00 to 6.00 | 5.00 to 6.00 | 5.00 to 6.00 | CCn1c(-c2cccnc2[C@H](C)OC)c2c3cc(ccc31)-c1csc(n1)C[C@H](NC(=O)[C@H](C(C)C)N1CCCN(C)C1=O)C(=O)N1CCC[C@H](N1)C(=O)OCC(C)(C)C2 [Compound A317] | 
12 | 7.00 to 8.00 | 7.00 to 8.00 | 6.00 to 7.00 | 7.00 to 8.00 | 6.00 to 7.00 | 7.00 to 8.00 | 6.00 to 7.00 | 7.00 to 8.00 | 7.00 to 8.00 | CCN(CC)C(=O)N(C)[C@H](C(=O)N[C@H]1Cc2nc(cs2)-c2ccc3c(c2)c(c(-c2cccnc2[C@H](C)OC)n3CC)CC(C)(C)COC(=O)[C@@H]2CCCN(N2)C1=O)C(C)C [Compound A351] | 
13 | 6.00 to 7.00 | 7.00 to 8.00 | 7.00 to 8.00 | 7.00 to 8.00 | 6.00 to 7.00 | 7.00 to 8.00 | 7.00 to 8.00 | 7.00 to 8.00 | 7.00 to 8.00 | CCn1c(-c2cccnc2[C@H](C)OC)c2c3cc(ccc31)-c1cc(O)cc(c1)C[C@H](NC(=O)[C@H](C(C)C)N(C)C(=O)[C@@H]1CCCC[C@@H]1N)C(=O)N1CCC[C@H](N1)C(=O)OCC(C)(C)C2 [Compound A395] | 
14 |  | 6.00 to 7.00 | 6.00 to 7.00 | 6.00 to 7.00 | 5.00 to 6.00 | 6.00 to 7.00 | 6.00 to 7.00 | 6.00 to 7.00 | 6.00 to 7.00 | CCn1c(-c2cccnc2[C@H](C)OC)c2c3cc(ccc31)-c1cc(O)cc(c1)C[C@H](NC(=O)[C@H](C(C)C)N(C)C(=O)C1CN3CCCN1CC3)C(=O)N1CCC[C@H](N1)C(=O)OCC(C)(C)C2 (stereo partly drawn) [Compound A404] | 
15 |  | 7.00 to 8.00 | 6.00 to 7.00 | 7.00 to 8.00 | 6.00 to 7.00 | 6.00 to 7.00 |  |  | 7.00 to 8.00 | CCn1c(-c2cccnc2[C@H](C)OC)c2c3cc(ccc31)-c1cc(O)cc(c1)C[C@H](NC(=O)[C@H](C(C)C)N(C)C(=O)C13CCC(CO1)C3)C(=O)N1CCC[C@H](N1)C(=O)OCC(C)(C)C2 [Compound A411] | 6.00 to 7.00
16 |  | 6.00 to 7.00 | 5.00 to 6.00 | 5.00 to 6.00 | 6.00 to 7.00 | 6.00 to 7.00 | 5.00 to 6.00 | 5.00 to 6.00 | 5.00 to 6.00 | CCn1c(-c2cccnc2[C@H](C)OC)c2c3cc(ccc31)-c1cc(O)cc(c1)C[C@H](NC(=O)[C@H](C(C)C)N(C)C(=O)[C@H]1OCC[C@H]1c1ccccc1)C(=O)N1CCC[C@H](N1)C(=O)OCC(C)(C)C2 [Compound A425] | 

Row | SMILES | pIC50 ([1]; Homo sapiens, NCI-H358, 120 h) | pIC50 [2] | pIC50 [3] | pIC50 [4] | pIC50 [5] | pIC50 [6] | pIC50 [7] | pIC50 [8] | pIC50 [9] | pIC50 [1]
17 | CCn1c(-c2cccnc2[C@H](C)OC)c2c3cc(ccc31)-c1cc(cc3nc[nH]c13)C[C@H](NC(=O)[C@H](C(C)C)N(C)C(C)=O)C(=O)N1CCC[C@H](N1)C(=O)OCC(C)(C)C2 [Compound A153] |  |  | < 5.00 | < 5.00 | < 5.00 | < 5.00 | < 5.00 | < 5.00 | < 5.00 | 
18 | CCn1c(-c2cccnc2[C@H](C)OC)c2c3cc(ccc31)-c1cc(cc(S(C)(=O)=O)c1)C[C@H](NC(=O)[C@H](C(C)C)N(C)C(C)=O)C(=O)N1CCC[C@H](N1)C(=O)OCC(C)(C)C2 [Compound A154] |  |  | < 5.00 | < 5.00 | < 5.00 | < 5.00 | < 5.00 | < 5.00 | < 5.00 | 
19 | CCn1c(-c2cc(N3CCN(C)CC3)cnc2[C@H](C)OC)c2c3cc(ccc31)-c1nc(co1)C[C@H](NC(=O)[C@H]1[C@H](C)[C@@H]1C)C(=O)N1CCC[C@H](N1)C(=O)OCC(C)(C)C2 [Compound A391, (1r,2R,3S)—N-((6^3S,4S,Z)-1^1-ethyl-1^2-(2-((S)-1-methoxyethyl)-5-(4-methylpiperazin-1-yl)pyridin-3-yl)-10,10-dimethyl-5,7-dioxo-6^1,6^2,6^3,6^4,6^5,6^6-hexahydro-1^1H-8-oxa-2 (2,4)-oxazola-1 (5,3)-indola-6 (1,3)-pyridazinacycloundecaphane-4-yl)-2,3-dimethylcyclopropane-1-carboxamide] |  | 7.00 to 8.00 | 7.00 to 8.00 | 7.00 to 8.00 | 7.00 to 8.00 | 7.00 to 8.00 |  |  |  | 7.00 to 8.00
